Like-named read-outs stand apart in the source and are kept apart here.
What was measured:
full-length FLAG-KDM5A = target: T1, full-length FLAG-KDM5A (Homo sapiens, UniProt P29375); experiment: AlphaScreen KDM5A demethylation assay (bio-H3K4me3 peptide); type: biochemical
T1 construct: Sf21 insect cells were infected with baculovirus to express full-length FLAG-KDM5A; made in house; host or cells: Sf21 insect cells (baculovirus)
Protocol: Histone demethylase assays were performed using previously described methods (Sayegh et al., 2013, J. Biol. Chem. 9408-9417), with the exception of all enzyme reactions containing 125 μM α-KG. Enzymes were used at the following approximate concentrations in validation experiments, chosen based on their activity in AlphaScreen assays: 19 nM FLAG-KDM5A, 15 nM FLAG-KDM5B, 6 nM FLAG-KDM5C, 29 nM His-FLAG-KDM6A, and 16 nM FLAG-KDM6B. 24 nM FLAG-KDM5A was used for Km determination experiments. Reactions were carried out for 1 hour, or were stopped by addition of 30 mM EDTA every 5 minutes for determining enzyme kinetics. Km values were calculated using the Michaelis-Menten non-linear regression analysis on GraphPad Prism 6.0 software. The concentration of DMSO in demethylation reactions was 0.05%. For reactions with catalase, catalase (Sigma C30) or an equal volume of dilution buffer was added to the peptide-containing buffer before addition of the demethylase. The final concentration of catalase in the reactions was 0.01 mg/ml.
The AlphaScreen general IgG (protein A) detection kit from PerkinElmer Life Sciences was used as described previously (Sayegh et al., 2013, J. Biol. Chem. 9408-9417). The luminescence emission was recorded at 570 nm using the AlphaScreen optic module on a Pherastar (BMG Labtech) or Envision (PerkinElmer Life Sciences) microplate reader.
8,861 compounds from the ChemBridge MW-Set, ChemBridge DIVERSet, MicroSource Gen-Plus, MicroSource Pure Natural Products, NIH Clinical Collection, and Enzo Epigenetics libraries were screened for inhibition of FLAG-KDM5A demethylase activity. Compounds were dissolved in DMSO and added at 20 μM to 384-well white plates (Corning 3574) containing 64 nM bio-H3K4me3 peptide in demethylase buffer prior to addition of 13 nM FLAG-KDM5A. Hits were selected at a threshold of three standard deviations (˜30% inhibition). A counter-screen was performed with the hits to eliminate any non-specific compounds. For this, 20 μM compounds were added to 64 nM bio-H3K4me2 peptide in demethylase buffer with no enzyme. Any hits that interfered with the positive signal detection were eliminated. Dose-response curves were performed on selected hits using 0.1-11 μM of compound. Further validation of top hits was performed using 5 μM of each compound or a dose-response curve using 0.05-50 μM of the compound.
Fresh compounds were ordered to confirm identity. IC50 curves were generated for YUKA1 and YUKA2 using 0.05-50 μM compound in 1 hour reactions. IC50 values were calculated by log transformation and non-linear regression log (inhibitor) versus response (three parameters) using Graphpad Prism 6.0 software. Percent activity of KDM5A was calculated for each data point by subtracting the background (average H3K4me3 signal) and dividing by the average signal for the DMSO controls. α-KG competition tests were performed using 150 nM H3K4me3 peptide and 50 μM Fe(II).
AlphaScreen technology (Perkin Elmer) was utilized to perform a screen for small molecule inhibitors of KDM5A. The assay was comprised of two steps, a demethylation reaction followed by detection of the product. A biotinylated H3K4me3 peptide was used as substrate in the demethylation reaction with KDM5A in the presence or absence of small molecule inhibitors. The presence of peptide product (H3K4me1/2) was detected using a product-specific antibody and beads. For this, acceptor beads coated in protein A bound to the antibody, which recognized the peptide product. Donor beads coated in streptavidin bound biotin on the peptide substrate. […]

HeLa cells = experiment: Colony formation assay, HeLa; type: cell-based, human
Protocol: Cells were seeded in 6-well plates at low density: HeLa, MCF7, BT474, and PC9 cells at 1000, 2000, 2500, and 2000 cells/well respectively. Media containing the prescribed drugs or 0.1% DMSO was replaced every 3 days. Trastuzumab was used at 5 μg/ml. Gefitinib was used at 2 μM. YUKA1 was used at 50 or 100 μM. Doxycycline was used at 1 μg/ml for 3 days. After 7-42 days depending on the rate of cell growth, cells were fixed in 4% para-formaldehyde in phosphate-buffered saline for 10 minutes rocking at room temperature. They were incubated in 0.05% crystal violet in double-distilled water for 30 minutes rocking at room temperature, washed with water, and dried 24 hours before photographing. ColonyArea, a plugin for ImageJ software, was used for quantification (Guzman et al., 2014, PloS One 9:e92444). Unpaired, two-tailed student's t-test was used to determine significance using GraphPad Prism 6.0 software.
HeLa (FIG. 11A) and MDA-MB231 cells (FIG. 11B) were treated with DMSO, 5 μM KDMS-C70 or 50 or 100 μM YUKA1 in colony-formation assays. The tables in FIGS. 11C and 11D depict the quantification of experimental data.

T1 sequence (P29375 whole entry): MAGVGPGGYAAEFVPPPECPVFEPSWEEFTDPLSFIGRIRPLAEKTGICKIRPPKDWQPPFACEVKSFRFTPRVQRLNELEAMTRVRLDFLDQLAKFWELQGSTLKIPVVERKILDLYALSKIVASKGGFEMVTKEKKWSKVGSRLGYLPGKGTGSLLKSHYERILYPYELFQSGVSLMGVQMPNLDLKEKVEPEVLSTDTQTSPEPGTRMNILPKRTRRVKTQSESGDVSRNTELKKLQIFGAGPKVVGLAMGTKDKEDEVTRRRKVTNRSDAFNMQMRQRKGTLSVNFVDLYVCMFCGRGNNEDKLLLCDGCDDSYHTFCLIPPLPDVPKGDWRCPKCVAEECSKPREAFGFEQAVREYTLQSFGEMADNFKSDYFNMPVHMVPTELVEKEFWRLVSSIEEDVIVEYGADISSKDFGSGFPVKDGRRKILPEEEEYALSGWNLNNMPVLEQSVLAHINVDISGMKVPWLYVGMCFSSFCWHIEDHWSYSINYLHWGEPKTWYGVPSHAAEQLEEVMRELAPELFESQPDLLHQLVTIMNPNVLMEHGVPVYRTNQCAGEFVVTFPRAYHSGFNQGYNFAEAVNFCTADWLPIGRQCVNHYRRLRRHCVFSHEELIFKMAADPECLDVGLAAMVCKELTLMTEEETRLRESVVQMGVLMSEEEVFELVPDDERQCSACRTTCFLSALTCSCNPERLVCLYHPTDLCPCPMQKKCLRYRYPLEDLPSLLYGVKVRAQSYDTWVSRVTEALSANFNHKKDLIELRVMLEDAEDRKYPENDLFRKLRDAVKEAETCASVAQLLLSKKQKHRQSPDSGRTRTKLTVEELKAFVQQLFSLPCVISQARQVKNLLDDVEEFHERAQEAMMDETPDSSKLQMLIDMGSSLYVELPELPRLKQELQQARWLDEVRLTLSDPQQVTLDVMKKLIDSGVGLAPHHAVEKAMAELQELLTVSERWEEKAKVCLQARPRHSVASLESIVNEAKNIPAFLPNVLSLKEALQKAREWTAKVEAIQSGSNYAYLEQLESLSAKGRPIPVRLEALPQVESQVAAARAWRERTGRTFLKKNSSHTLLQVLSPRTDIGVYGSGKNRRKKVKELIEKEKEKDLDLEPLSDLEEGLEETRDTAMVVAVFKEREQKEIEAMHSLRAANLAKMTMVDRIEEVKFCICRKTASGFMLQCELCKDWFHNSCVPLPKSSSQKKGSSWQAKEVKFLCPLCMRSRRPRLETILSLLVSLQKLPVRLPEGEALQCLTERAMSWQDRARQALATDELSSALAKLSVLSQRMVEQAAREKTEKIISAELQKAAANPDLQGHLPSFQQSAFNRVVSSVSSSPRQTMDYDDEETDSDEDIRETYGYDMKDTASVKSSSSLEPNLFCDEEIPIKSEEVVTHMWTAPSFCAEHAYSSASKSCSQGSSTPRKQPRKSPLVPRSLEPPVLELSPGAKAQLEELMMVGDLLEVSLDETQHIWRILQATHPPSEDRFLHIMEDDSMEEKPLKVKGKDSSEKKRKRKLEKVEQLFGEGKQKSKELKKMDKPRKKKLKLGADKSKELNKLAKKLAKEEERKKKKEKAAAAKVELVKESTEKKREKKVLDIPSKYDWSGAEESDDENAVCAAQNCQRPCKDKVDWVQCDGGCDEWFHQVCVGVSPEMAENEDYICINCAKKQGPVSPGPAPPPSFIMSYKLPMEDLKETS

SMILES: C=CCOc1c(CNn2cnnc2S)cccc1OC [YUKA1, 4-([2-(allyloxy)-3-methoxybenzyl]amino)-4H-1,2,4-triazole-3-thiol]
- mode of KDM5A inhibition with respect to Fe(II) (full-length FLAG-KDM5A): uncompetitive with respect to Fe(II)
- KDM5A enzyme inhibition at low Fe(II) (full-length FLAG-KDM5A; 5 μM Fe(II)): too weak to generate robust IC50 curves
- effect of catalase on inhibitory potency against KDM5A (full-length FLAG-KDM5A; 0.01 mg/ml catalase): did not affect the inhibitory potency
- IC50 (full-length FLAG-KDM5A; 0.05-50 μM compound, 1 hour reactions, read-out: average in vitro IC50 against KDM5A): 2660 nM
- change of KDM5A IC50 with α-KG concentration (full-length FLAG-KDM5A; 16-fold range of α-KG, 150 nM H3K4me3 peptide, 50 μM Fe(II)): did not change significantly
- IC50 (full-length FLAG-KDM5A; inhibitors found by high throughput screening, read-out: KDM5A IC50): 1320 nM
- growth in colony-formation assay (HeLa cells; 5 μM KDMS-C70 or 50 or 100 μM YUKA1): suppresses growth
- number of colonies formed vs DMSO control (HeLa cells; two-week treatment): significantly reduced
